Experimental data reported in patent US20260285849A1, “METHYLOPHIOPOGONONE A DERIVATIVE, AND PREPARATION AND USE THEREOF” (INSTITUTE OF MATERIA MEDICA, CHINESE ACADEMY OF MEDICAL …, priority 2022, published 2026).
Where two headings read alike, the source gives them in different places.

How the values were obtained:
[1] = tested on: mice with isoproterenol (ISO)-induced ischemic heart disease; assay: ISO-induced ischemic heart disease mouse model: Ca2+ in myocardial tissue; assay type: in vivo
Description: (§1) Male C57BL/6 mice were allowed to acclimate to the environment and then randomly divided into 9 groups, namely the blank control group, the ISO model group, the ISO+diltiazem 20 mg/kg positive control drug group, the ISO+Formula I (0.1, 0.5, 2 mg/kg) groups, and the ISO+Formula II (0.1, 0.5, 2 mg/kg) groups. Mice in the drug administration groups were intragastrically administered the corresponding doses of Formula I and Formula II compounds once a day at the same time. Mice in the positive drug diltiazem group were intragastrically administered the corresponding dose of diltiazem once a day. Mice in the blank control group and the model group were given the same amount of solvent (0.5% CMC-Na). The administration volume was 10 mL/kg, and the administration was continuous for 11 days.
(§2) From the 4th to the 10th day of drug administration, ISO modeling was carried out. The blank control group was subcutaneously injected with normal saline, and mice in the other groups were subcutaneously injected with ISO at a dose of 40 mg/kg (modeling was performed 2 hours after drug administration), for a total of 7 times.
Calcium ion detection in myocardial tissue: After the experiment ended, some myocardial tissue was taken to prepare a 10% myocardial tissue homogenate with ultrapure water. The homogenate was centrifuged at 1200 rpm for 20 minutes at 4° C. to separate the supernatant of the myocardial tissue homogenate. The calcium ion content was determined according to the kit instructions; protein quantification was performed using the BCA protein assay method.

[2] = tested on: H9C2 cardiomyocytes; assay: cells; conditions: Rattus norvegicus, H9c2, read-out: Cell viability
Description: H9C2 cardiomyocytes in the logarithmic growth phase were seeded into 96-well plates at a density of 7×10^4 cells/mL, with 100 μL per well.
After 24 hours of culture, the culture medium of the H/R and drug-treated groups was replaced with serum-free glucose-free DMEM medium (100 μL per well). The cells were then placed in an anaerobic incubator and cultured under hypoxic conditions in a 37° C. cell culture incubator. After 6 hours, the supernatant of the H/R and drug-treated groups was removed and replaced with high-glucose medium containing 10% fetal bovine serum (100 μL per well). Each drug-treated group received the corresponding concentration of the drug, while the H/R model group and the blank control group received an equal volume of DMSO.
After removing the supernatant, 100 μL of CCK solution (the volume of CCK accounted for 10% of the DMEM culture medium volume) was added to each well. The cells were cultured in the cell culture incubator for 1 hour, and the absorbance was measured at 450 nm using a microplate reader to calculate the cell viability. Cell viability was calculated as follows: Cell viability (%)=(Experimental well-Blank well)/(Control well-Blank well)×100%.

[3] = tested on: Rat H9C2 cardiomyocytes; conditions: 50 μM Ang II 24 h, MTT 570 nm
Description: Rat H9C2 cardiomyocytes in the logarithmic growth phase were seeded at a density of 7×10^4 cells/mL into 96-well plates, with 100 μL per well. […] After 24 hours of culture, the drug treatment groups were respectively added with 50 μM Ang II and the corresponding concentration of the drug. The Ang II model group was added with 50 μM Ang II and an equal volume of DMSO, and the blank control group was added with an equal volume of DMSO. Then, the cells were cultured for another 24 hours. After removing the supernatant, 100 μL of MTT solution (0.5 mg/mL) was added to each well, and the plates were placed in an incubator for 4 hours. After removing the supernatant again, 150 μL of DMSO was added to each well, and the mixture was shaken and mixed evenly for 10 minutes. The absorbance was measured at 570 nm using a microplate reader to calculate the cell viability.
Cell viability (%)=[(As−Ab)/(Ac−Ab)]×100% • As: Experimental well (culture medium containing cells, MTT, Ang II); • Ac: Control well (culture medium containing cells, MTT, without Ang II); • Ab: Blank well (culture medium without cells, MTT, without Ang II).

[4] = tested on: H9C2 cardiomyocytes; assay: Angiotensin II (Ang II)-induced cardiomyocyte hypertrophy model, crystal violet, cell surface area; assay type: cell-based, rat; conditions: for surface area of a single cardiomyocyte, View 1 / surface area of a single cardiomyocyte, View 2 / surface area of a single cardiomyocyte, View 3 / surface area of a single cardiomyocyte, View 4 / surface area of a single cardiomyocyte, View 5 / Myocardial surface area: 40 μM Ang II 24 h; for surface area of a single cardiomyocyte, View 1: field of view 1; for surface area of a single cardiomyocyte, View 2: field of view 2; for surface area of a single cardiomyocyte, View 3: field of view 3; for surface area of a single cardiomyocyte, View 4: field of view 4; for surface area of a single cardiomyocyte, View 5: field of view 5; for Myocardial surface area: mean of 5 views
Description: Adjust the H9C2 cardiomyocytes in the logarithmic growth phase to a density of 1.2×10^5 cells/well and inoculate them into six-well plates. […] After culturing for 24 hours, the drug administration groups are added with 40 μM Ang II and the corresponding concentrations of drugs. The Ang II+diltiazem 10 μM group is added with 40 μM Ang II and 10 μM diltiazem. The Ang II model group is added with 40 μM Ang II and an equal volume of DMSO. The blank control group is added with an equal volume of DMSO. Then, continue culturing for 24 hours. Discard the culture medium, wash the cells 3 times with PBS. Add 1 mL of methanol to each well and fix the cells at −20° C. for 20 minutes, and then let them return to room temperature. After discarding the methanol, add 1 mL of 0.5% crystal violet staining solution to each well and stain for 10 minutes. Wash the cells with clean water and take pictures under an inverted microscope. Randomly select fields of view for photographing. Use Image J software to measure the sum of the surface areas of all cardiomyocytes in the field of view and count the number of cells in the field of view at the same time to obtain the surface area of each cardiomyocyte. The surface area of a single cardiomyocyte=the sum of the surface areas of all cardiomyocytes in the field of view/the number of cardiomyocytes in the field of view.

[5] = tested on: mice with isoproterenol (ISO)-induced ischemic heart disease; assay: ISO-induced ischemic heart disease mouse model: serum ANP and NT-proBNP (ELISA); assay type: in vivo; conditions: ISO 40 mg/kg s.c. 7 times
Description: as §1, §2
Detection of Myocardial Hypertrophy/Heart Failure Biomarkers: After the drug administration ended, the animals' eyes were enucleated to collect blood. The blood was left to stand at room temperature for 2 hours, and then centrifuged at 3500 rpm for 20 minutes to separate the serum. The contents of serum ANP and NT-proBNP were determined according to the instructions of the ELISA kit.

[6] = tested on: Rat H9C2 cardiomyocytes; assay: cells; conditions: H9c2, 24 h, read-out: Cell survival rate
Description: (§3) Rat H9C2 cardiomyocytes in the logarithmic growth phase were seeded into 96-well plates at a density of 7×10^4 cells/mL, with 100 μL per well. […] After 24 hours of culture, the drug groups were treated with 800 μM ISO and the corresponding concentrations of drugs. The ISO model group received 800 μM ISO and an equal volume of DMSO, and the blank control group received an equal volume of DMSO. The cells were then cultured for another 24 hours. After removing the supernatant, 100 μL MTT solution (0.5 mg/mL) was added to each well and incubated in the cell culture incubator for 4 hours. After removing the supernatant, 150 μL DMSO was added to each well, mixed by shaking for 10 minutes, and the absorbance was measured at 570 nm using a microplate reader to calculate cell viability. Cell viability (%)=[(As−Ab)/(Ac−Ab)]×100%. As: Experimental well (medium with cells, MTT, ISO); Ac: Control well (medium with cells, MTT, without ISO); Ab: Blank well (medium without cells, MTT, without ISO).

[7] = tested on: Rat H9C2 cardiomyocytes; conditions: 800 μM ISO 24 h, MTT 570 nm
Description: as §3

[8] = tested on: mice with isoproterenol (ISO)-induced ischemic heart disease; assay: ISO-induced ischemic heart disease mouse model: serum CK-MB (ELISA); assay type: in vivo
Description: as §1, §2
Myocardial enzyme CK-MB detection: After the administration ended, blood was collected from the animals by enucleation. The blood was left to stand at room temperature for 2 hours, and then centrifuged at 3500 rpm for 20 minutes to separate the serum. The content of CK-MB in the serum was determined according to the instructions of the ELISA kit.

[9] = 0.1 mg/kg intragastric once a day 11 days
[10] = 0.5 mg/kg intragastric once a day 11 days
[11] = 2 mg/kg intragastric once a day 11 days

`Cc1c(O)cc(O)c2c(=O)c(Cc3ccc4c(c3)OCO4)coc12` [Formula II, 3-(benzo[d][1,3]dioxol-5-ylmethyl)-5,7-dihydroxy-8-methyl-4H-chromen-4-one] was tested, and the “Ca^2+” value [1, 9] was 0.046 ± 0.015 mmol/gprot, the “Ca^2+” value [1, 10] was 0.054 ± 0.014 mmol/gprot and the “Ca^2+” value [1, 11] was 0.059 ± 0.009 mmol/gprot. It also gave a viability at 0.1 µM [2] of 60.5%, a viability at 0.3 µM [2] of 58.8% and a viability at 1 µM [2] of 52.1%. The viability at 3 µM [2] was 61.5%, the viability at 5 µM [2] was 44.8% and the viability at 10 µM [2] was 47.9%. It also gave an OD ([3]; 0.1 μM) of 0.876 ± 0.044, an OD ([3]; 0.3 μM) of 0.791 ± 0.062 and an OD ([3]; 1 μM) of 0.835 ± 0.052. For the same molecule, the OD ([3]; 3 μM) was 0.785 ± 0.048, the OD ([3]; 10 μM) was 0.814 ± 0.053 and the “number of cardiomyocytes (decrease in cell number caused by AngII)” value ([4]; 0.1 μM, 0.5 μM and 1 μM, 40 μM AngII 24 h) was “significantly improve the decrease in cell number caused by AngII”. The “surface area of a single cardiomyocyte, View 1” value (from here on “surface area … View 1”) ([4]; 0.1 μM) was 346.49 μm^2, the “surface area of a single cardiomyocyte, View 2” value (“surface area … View 2” below) ([4]; 0.1 μM) was 347.86 μm^2 and the “surface area of a single cardiomyocyte, View 3” value (shortened to “surface area … View 3”) ([4]; 0.1 μM) was 326.61 μm^2. The “surface area of a single cardiomyocyte, View 4” value (“surface area … View 4” for short) ([4]; 0.1 μM) was 381.47 μm^2, the “surface area of a single cardiomyocyte, View 5” value (“surface area … View 5” below) ([4]; 0.1 μM) was 353.63 μm^2 and the Myocardial surface area ([4]; 0.1 μM) was 351.21 ± 17.66^### μm^2. The “surface area … View 1” value ([4]; 0.5 μM) was 420.10 μm^2, the “surface area … View 2” value ([4]; 0.5 μM) was 338.84 μm^2 and the “surface area … View 3” value ([4]; 0.5 μM) was 355 μm^2. The “surface area … View 4” value ([4]; 0.5 μM) was 334.83 μm^2, the “surface area … View 5” value ([4]; 0.5 μM) was 342.18 μm^2 and the Myocardial surface area ([4]; 0.5 μM) was 358.19 ± 31.68^### μm^2. The “surface area … View 1” value ([4]; 1 μM) was 365.93 μm^2, the “surface area … View 2” value ([4]; 1 μM) was 372.44 μm^2 and the “surface area … View 3” value ([4]; 1 μM) was 366.76 μm^2. For the same molecule, the “surface area … View 4” value ([4]; 1 μM) was 392.9 μm^2, the “surface area … View 5” value ([4]; 1 μM) was 373.9 μm^2 and the Myocardial surface area ([4]; 1 μM) was 374.39 ± 9.76^### μm^2. It also gave an ANP [5, 9] of 303.60 ± 37.76 pg/mL, an NT-proBNP [5, 9] of 34.07 ± 4.10 pg/mL and an ANP [5, 10] of 264.38 ± 27.96 pg/mL. For the same molecule, the NT-proBNP [5, 10] was 31.31 ± 2.24 pg/mL, the ANP [5, 11] was 258.19 ± 52.28 pg/mL and the NT-proBNP [5, 11] was 31.12 ± 2.33 pg/mL. The viability at 0.1 µM [6] was 79.8%, the viability at 0.3 µM [6] was 79.8% and the viability at 1 µM [6] was 74.8%. For the same molecule, the viability at 3 µM [6] was 79.6%, the viability at 5 µM [6] was 64.9% and the viability at 10 µM [6] was 66.7%. The OD ([7]; 0.1 μM) was 0.964 ± 0.132, the OD ([7]; 0.3 μM) was 0.964 ± 0.031 and the OD ([7]; 1 μM) was 0.904 ± 0.072^###&&. For the same molecule, the OD ([7]; 3 μM) was 0.963 ± 0.064, the OD ([7]; 5 μM) was 0.784 ± 0.067 and the OD ([7]; 10 μM) was 0.806 ± 0.067. It also gave a CK-MB [8, 9] of 15.48 ± 1.76 ng/mL, a CK-MB [8, 10] of 12.89 ± 2.29 ng/mL and a CK-MB [8, 11] of 12.91 ± 1.53 ng/mL.
